Results from PubChem BioAssay AID248 (DTP/NCI, 2004).
Where “and” joins values, the source holds several entries; their conditions need not be identical. Identical values can stand only once. Inconclusive results and toxic doses are left out. Cut-off read from the data, not from the text of the source: active = T/C of 150% or more; inactive = T/C below 125%.

System: L1210 leukemia ip in BDF1 mice, survival T/C
Assay: NCI In Vivo Anticancer Drug Screen. Data for tumor model L1210 Leukemia (intraperitoneal) in B6D2F1 (BDF1) mice
Details: endpoint: mean survival time, higher = longer survival
Method in brief: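 Survival endpoint. Drug-treated group vs vehicle group, expressed as T divided by C. Tumor passaged by transplantation.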

[1] = dose: 100.0 mg/kg/injection, schedule: Q01DX001 (ip), vehicle: Klucel (hydroxypropylcellulose) (HPC)
[2] = dose: 100.0 mg/kg/injection, schedule: Q01DX009 (ip), vehicle: saline
[3] = dose: 100.0 mg/kg/injection, schedule: Q04DX003 (ip), vehicle: saline
[4] = dose: 200.0 mg/kg/injection, schedule: Q01DX001 (ip), vehicle: Klucel (hydroxypropylcellulose) (HPC)
[5] = dose: 200.0 mg/kg/injection, schedule: Q01DX009 (ip), vehicle: saline
[6] = dose: 200.0 mg/kg/injection, schedule: Q04DX003 (ip), vehicle: saline
[7] = dose: 50.0 mg/kg/injection, schedule: Q01DX001 (ip), vehicle: carboxymethylcellulose (CMC)
[8] = dose: 100.0 mg/kg/injection, schedule: Q01DX001 (ip), vehicle: carboxymethylcellulose (CMC)
[9] = dose: 200.0 mg/kg/injection, schedule: Q01DX001 (ip), vehicle: carboxymethylcellulose (CMC)
[10] = dose: 400.0 mg/kg/injection, schedule: Q01DX001 (ip), vehicle: carboxymethylcellulose (CMC)
[11] = dose: 100.0 mg/kg/injection, schedule: Q01DX009 (ip), vehicle: Klucel (hydroxypropylcellulose) (HPC)
[12] = dose: 100.0 mg/kg/injection, schedule: Q04DX002 (ip), vehicle: Klucel (hydroxypropylcellulose) (HPC)
[13] = dose: 100.0 mg/kg/injection, schedule: Q04DX003 (ip), vehicle: Klucel (hydroxypropylcellulose) (HPC)
[14] = dose: 200.0 mg/kg/injection, schedule: Q01DX009 (ip), vehicle: Klucel (hydroxypropylcellulose) (HPC)
[15] = dose: 200.0 mg/kg/injection, schedule: Q04DX002 (ip), vehicle: Klucel (hydroxypropylcellulose) (HPC)
[16] = dose: 200.0 mg/kg/injection, schedule: Q04DX003 (ip), vehicle: Klucel (hydroxypropylcellulose) (HPC)
[17] = dose: 400.0 mg/kg/injection, schedule: Q01DX001 (ip), vehicle: Klucel (hydroxypropylcellulose) (HPC)
[18] = dose: 400.0 mg/kg/injection, schedule: Q01DX009 (ip), vehicle: Klucel (hydroxypropylcellulose) (HPC)
[19] = dose: 400.0 mg/kg/injection, schedule: Q04DX002 (ip), vehicle: Klucel (hydroxypropylcellulose) (HPC)
[20] = dose: 400.0 mg/kg/injection, schedule: Q04DX003 (ip), vehicle: Klucel (hydroxypropylcellulose) (HPC)
[21] = dose: 100.0 mg/kg/injection, schedule: Q04DX002 (ip), vehicle: saline with Tween-80
[22] = dose: 200.0 mg/kg/injection, schedule: Q04DX002 (ip), vehicle: saline with Tween-80
[23] = dose: 400.0 mg/kg/injection, schedule: Q04DX002 (ip), vehicle: saline with Tween-80
[24] = dose: 100.0 mg/kg/injection, schedule: Q01DX001 (ip), vehicle: saline
[25] = dose: 100.0 mg/kg/injection, schedule: Q04DX003 (ip), vehicle: saline with Tween-80
[26] = dose: 200.0 mg/kg/injection, schedule: Q04DX003 (ip), vehicle: saline with Tween-80
[27] = dose: 400.0 mg/kg/injection, schedule: Q04DX003 (ip), vehicle: saline with Tween-80
[28] = dose: 100.0 mg/kg/injection, schedule: Q01DX009 (ip), vehicle: saline with Tween-80
[29] = dose: 200.0 mg/kg/injection, schedule: Q01DX009 (ip), vehicle: saline with Tween-80

Measured: T/C

CCOc1cc[n+]([O-])cc1
inactive: dose: 50.0 mg/kg/injection, schedule: Q01DX009 (ip), vehicle: saline 90 % of control | [1] 96 % of control | [2] 90 % of control | [3] 100 % of control | [4] 108 % of control | [5] 90 % of control | [6] 96 % of control

Nc1ncc(CCCCc2ccccc2)c(=O)[nH]1
inactive: dose: 100.0 mg/kg/injection, schedule: Q01DX001 (ip), vehicle: saline with Tween-80 96 % of control | dose: 200.0 mg/kg/injection, schedule: Q01DX001 (ip), vehicle: saline with Tween-80 93 % of control | dose: 400.0 mg/kg/injection, schedule: Q01DX001 (ip), vehicle: saline with Tween-80 98 % of control

NC(=O)SCC(N)C(=O)O (centres undefined)
inactive: [7] 101 % of control | [8] 90 % of control | [3] 104 % of control | [9] 95 % of control | [6] 110 % of control | [10] 101 % of control | dose: 400.0 mg/kg/injection, schedule: Q04DX003 (ip), vehicle: saline 116 % of control

CCc1ccccc1NC(=O)SCc1ccccc1
inactive: [1] 91 % of control | [11] 100 % of control and 90 % of control | [12] 95 % of control and 109 % of control | [13] 87 % of control | [4] 94 % of control | [14] 90 % of control | [15] 97 % of control and 102 % of control | [16] 102 % of control | [17] 89 % of control | [18] 108 % of control and 90 % of control | [19] 92 % of control and 105 % of control | [20] 98 % of control

CC(=O)O[C@H]1CC[C@H]2[C@@H]3[C@H](C)CC4=CC(=O)CCC4[C@H]3CC[C@]12C (some centres undefined)
inactive: dose: 100.0 mg/kg/injection, schedule: Q01DX001 (sc), vehicle: steriod suspending solution 98 % of control | dose: 200.0 mg/kg/injection, schedule: Q01DX001 (sc), vehicle: steriod suspending solution 100 % of control | dose: 400.0 mg/kg/injection, schedule: Q01DX001 (sc), vehicle: steriod suspending solution 102 % of control

CN(C)c1ccc(/C=C/c2ccc3ccccc3n2)cc1
inactive: [1] 100 % of control | [11] 103 % of control | [4] 97 % of control | [14] 100 % of control | [17] 101 % of control | [18] 95 % of control

COc1ccc2c(c1)C1(C)CCN(CCc3ccccc3)C(C2)C1C (centres undefined)
inactive: dose: 75.0 mg/kg/injection, schedule: Q01DX001 (ip), vehicle: carboxymethylcellulose (CMC) 93 % of control | dose: 150.0 mg/kg/injection, schedule: Q01DX001 (ip), vehicle: carboxymethylcellulose (CMC) 94 % of control

Cc1cc(C(=O)Nc2ccc(NC3=NCCN3)cc2)c(C)cc1C(=O)Nc1ccc(NC2=NCCN2)cc1
inactive: dose: 1.88 mg/kg/injection, schedule: Q01DX Z (ip), vehicle: saline 93 % of control | dose: 3.75 mg/kg/injection, schedule: Q01DX Z (ip), vehicle: saline 98 % of control | dose: 7.5 mg/kg/injection, schedule: Q01DX Z (ip), vehicle: saline 94 % of control | dose: 15.0 mg/kg/injection, schedule: Q01DX Z (ip), vehicle: saline 108 % of control | dose: 30.0 mg/kg/injection, schedule: Q01DX Z (ip), vehicle: saline 103 % of control

CC1=NN(P(=O)(c2ccccc2)c2ccccc2)/C(=C\c2ccccc2)O1
inactive: dose: 100.0 mg/kg/injection, schedule: Q01DX001 (ip), vehicle: steriod suspending solution 90 % of control | dose: 200.0 mg/kg/injection, schedule: Q01DX001 (ip), vehicle: steriod suspending solution 104 % of control | dose: 400.0 mg/kg/injection, schedule: Q01DX001 (ip), vehicle: steriod suspending solution 90 % of control

NC(=O)/C(=C\c1ccc(N=Nc2ccc(/C=C(\C(N)=O)c3cccc4ccccc34)cc2)cc1)c1cccc2ccccc12
inactive: [13] 93 % of control | [16] 99 % of control | [20] 89 % of control

CC1(C)N=C(N)N=C(N)N1c1cccc(OCc2cccc(NC(=O)CBr)c2)c1
inactive: dose: 5.0 mg/kg/injection, schedule: Q01DX001 (ip), vehicle: saline 106 % of control | dose: 10.0 mg/kg/injection, schedule: Q01DX001 (ip), vehicle: saline 103 % of control | dose: 20.0 mg/kg/injection, schedule: Q01DX001 (ip), vehicle: saline 103 % of control | dose: 40.0 mg/kg/injection, schedule: Q01DX001 (ip), vehicle: saline 97 % of control

CC(C)(C)c1cc(C#N)cc(Br)c1OP(=O)(Oc1c(Br)cc(C#N)cc1C(C)(C)C)c1ccccc1
inactive: [21] 95 % of control | [22] 92 % of control | [23] 97 % of control

O=C1CCc2c1cccc2[N+](=O)[O-]
inactive: [21] 102 % of control | [22] 102 % of control | [23] 102 % of control

CCNc1cc(Cl)c(C(=O)O)cc1[N+](=O)[O-]
inactive: [2] 116 % of control | [5] 103 % of control | dose: 400.0 mg/kg/injection, schedule: Q01DX009 (ip), vehicle: saline 95 % of control

CC(=O)Nc1ccc(S(=O)(=O)C2=CC(=O)c3ccccc3C2=O)cc1
inactive: [24] 95 % of control

CC12CCC(C(=O)C1=O)C2(C)C (centres undefined)
inactive: [7] 121 % of control | [8] 103 % of control | [12] 99 % of control | [9] 109 % of control | [15] 96 % of control | [10] 113 % of control | [19] 89 % of control

C=CCC1CC2(C)C(CCC3C2CCC2(C)C(OC(C)=O)CCC32)CC1=O (centres undefined)
inactive: dose: 10.0 mg/kg/injection, schedule: Q01DX009 (ip), vehicle: gum acacia 89 % of control | dose: 200.0 mg/kg/injection, schedule: Q01DX009 (ip), vehicle: gum acacia 88 % of control

CC(=O)OC1CC(n2cc(C)c(=O)[nH]c2=O)OC1COP(=O)(N1CC1)N1CC1 (centres undefined)
inactive: dose: 50.0 mg/kg/injection, schedule: Q04DX002 (ip), vehicle: saline 107 % of control | dose: 200.0 mg/kg/injection, schedule: Q04DX002 (ip), vehicle: saline 112 % of control

CC(C)NC(=O)C1C2CCC(CC2)C1C(=O)NC(C)C (centres undefined)
inactive: [25] 96 % of control | [26] 86 % of control | [27] 86 % of control

CC(=O)c1ccc(OCc2ccccc2)cc1OCC(O)CN1CCN(c2ccc(C)c(C)c2)CC1 (centres undefined)
inactive: [25] 97 % of control | [26] 95 % of control | [27] 92 % of control

COC(=O)C1CC(NC(C)=O)C(OC(C)=O)C1OC(C)=O (centres undefined)
inactive: [24] 94 % of control | dose: 200.0 mg/kg/injection, schedule: Q01DX001 (ip), vehicle: saline 94 % of control | dose: 400.0 mg/kg/injection, schedule: Q01DX001 (ip), vehicle: saline 104 % of control

CC(Cc1ccccc1)NC1=NCCO1 (centres undefined)
inactive: [28] 91 % of control | [29] 91 % of control | dose: 400.0 mg/kg/injection, schedule: Q01DX009 (ip), vehicle: saline with Tween-80 89 % of control

CC1CC(C)(C)N=C(C(Cc2ccc(Br)cc2)c2ccccc2)O1 (centres undefined)
inactive: [25] 97 % of control | [26] 92 % of control | [27] 95 % of control

CCOc1ccc(/C=N/NC(=O)COCC(=O)N/N=C/c2ccc(OCC)c(OC)c2)cc1OC
inactive: [11] 92 % of control | [14] 87 % of control | [18] 103 % of control

COC1C(=O)CCC2(CO2)C1(O)C1(C)OC1CC=C(C)C (centres undefined)
inactive: dose: 50.0 mg/kg/injection, schedule: Q01DX009 (ip), vehicle: saline with Tween-80 104 % of control | [28] 109 % of control | [3] 106 % of control | [29] 87 % of control | [6] 100 % of control
